Active and inactive are the calls of the source.
Tests used:
[1] = target: Bcl-2-like protein 10 (Homo sapiens, UniProt Q9HD36); assay: displacers of TR3 peptide from Bcl-B, primary screen, selectivity assay for Bfl-1 inhibitor project, biochemical, fluorescence polarization, FITC-TR3 peptide (AID 748);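 also: fluorescence polarization from a fluorescein-labelled TR3 peptide binding purified Bcl-B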
[2] = target: G2/mitotic-specific cyclin-B1 (Homo sapiens, UniProt P14635); assay: Counterscreen assay for inhibitors of Wee1 degradation: dose response cell-based assay to identify inhibitors of cyclin B degradation. [Related pubchem assays: 1410, 1321 ]; assay type: functional
[3] = Luminescence Cell-Based Dose Response HTS to Identify Activators of Luciferase Translation or Activity in H4 […] Cells. [Related pubchem assays: 1829 (Project Summary), 1814 (Primary HTS)]; assay type: functional
[4] = target: Wee1-like protein kinase (Homo sapiens, UniProt P30291); assay: Dose Response Cell-based Assay for Inhibitors of Wee1 Degradation. [Related pubchem assays: 1410, 1321 ]; assay type: functional
[5] = system: H4; assay: Luminescence Cell-Based Dose Response HTS to Identify Activators of 5'UTR Stem-Loop Driven Prion Protein mRNA Translation in H4 Neuroglioblastoma Cells. [Related pubchem assays: 1829 (Project Summary), 1814 (Primary HTS)]; assay type: functional; conditions: Homo sapiens
[6] = Cytotoxicity screening for potential Inhibitors of Bacterial Capsule Biogenesis. [Related pubchem assays (depositor defined):AID488970]; assay type: functional
[7] = target: FAD-linked sulfhydryl oxidase ALR (Homo sapiens, UniProt P55789); assay: inhibitors of human ALR sulfhydryl oxidase, dose response, biochemical, H2O2 detection, luminescence, cherry-pick (AID 493248)
[8] = target: T1, Short transient receptor potential channel 4 (Mus musculus, UniProt Q9QUQ5); assay: mouse TRPC4 channel activators, dose response, cell-based, HEK293 TRPC4/mu-opioid, Fluo-4 calcium (AID 434937); assay type: functional
T1 sequence (Q9QUQ5 whole entry): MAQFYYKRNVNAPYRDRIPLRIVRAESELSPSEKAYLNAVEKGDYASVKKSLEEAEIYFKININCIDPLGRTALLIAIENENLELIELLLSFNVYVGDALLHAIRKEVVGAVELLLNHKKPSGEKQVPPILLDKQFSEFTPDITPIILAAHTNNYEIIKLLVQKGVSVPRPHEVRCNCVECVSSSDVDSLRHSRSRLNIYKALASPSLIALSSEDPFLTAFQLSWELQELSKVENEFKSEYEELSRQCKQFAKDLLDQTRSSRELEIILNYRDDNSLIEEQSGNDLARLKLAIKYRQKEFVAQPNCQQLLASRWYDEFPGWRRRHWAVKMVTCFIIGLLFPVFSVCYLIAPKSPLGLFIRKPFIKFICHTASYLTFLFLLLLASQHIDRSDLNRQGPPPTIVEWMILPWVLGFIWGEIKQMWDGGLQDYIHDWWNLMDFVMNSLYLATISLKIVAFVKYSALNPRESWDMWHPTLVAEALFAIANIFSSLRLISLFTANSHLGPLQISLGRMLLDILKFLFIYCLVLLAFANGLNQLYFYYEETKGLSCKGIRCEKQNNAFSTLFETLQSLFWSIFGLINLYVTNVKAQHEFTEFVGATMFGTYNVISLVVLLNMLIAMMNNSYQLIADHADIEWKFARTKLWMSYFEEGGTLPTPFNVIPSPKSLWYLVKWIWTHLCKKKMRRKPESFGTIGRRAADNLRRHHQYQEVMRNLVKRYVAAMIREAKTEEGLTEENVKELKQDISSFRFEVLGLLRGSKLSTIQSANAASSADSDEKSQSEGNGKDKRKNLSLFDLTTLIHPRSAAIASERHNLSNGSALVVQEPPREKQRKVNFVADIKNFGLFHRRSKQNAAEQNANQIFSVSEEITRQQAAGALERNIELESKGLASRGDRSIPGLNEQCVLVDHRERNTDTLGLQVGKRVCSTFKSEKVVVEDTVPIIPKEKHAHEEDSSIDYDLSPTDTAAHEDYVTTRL

[9] = Counterscreen for IDE inhibitors: Luminescence-based cell-based high throughput dose response assay to identify compounds that are cytotoxic to HEK cells. [Related pubchem assays: 434962 (Primary screen (IDE inhibitors in singlicate)), 449730 (Counterscreen (Cytotoxicity in triplicate)), 435028 (Confirmation (IDE inhibitors in triplicate)) …; assay type: functional; conditions: HEK293
[10] = target: G-protein coupled receptor 55 (Homo sapiens, UniProt Q9Y2T6); assay: GPR55 agonists via beta-arrestin recruitment, primary screen, imaging, U2OS cells, beta-arrestin-GFP redistribution (AID 1961); assay type: functional
[11] = target: T2, Insulin-degrading enzyme (Homo sapiens, UniProt P14735); assay: Dose Response: Fluorescence polarization-based cell-based high throughput dose response assay for inhibitors of insulin-degrading enzyme (IDE). [Related pubchem assays: 434962 (Primary screen (IDE inhibitors in singlicate)), 449730 (Counterscreen (Cytotoxicity in triplicate)), 435028 (Confirmation (IDE inhibitors in triplicate)), 434984 (Summary …; assay type: functional
T2 sequence (P14735 whole entry): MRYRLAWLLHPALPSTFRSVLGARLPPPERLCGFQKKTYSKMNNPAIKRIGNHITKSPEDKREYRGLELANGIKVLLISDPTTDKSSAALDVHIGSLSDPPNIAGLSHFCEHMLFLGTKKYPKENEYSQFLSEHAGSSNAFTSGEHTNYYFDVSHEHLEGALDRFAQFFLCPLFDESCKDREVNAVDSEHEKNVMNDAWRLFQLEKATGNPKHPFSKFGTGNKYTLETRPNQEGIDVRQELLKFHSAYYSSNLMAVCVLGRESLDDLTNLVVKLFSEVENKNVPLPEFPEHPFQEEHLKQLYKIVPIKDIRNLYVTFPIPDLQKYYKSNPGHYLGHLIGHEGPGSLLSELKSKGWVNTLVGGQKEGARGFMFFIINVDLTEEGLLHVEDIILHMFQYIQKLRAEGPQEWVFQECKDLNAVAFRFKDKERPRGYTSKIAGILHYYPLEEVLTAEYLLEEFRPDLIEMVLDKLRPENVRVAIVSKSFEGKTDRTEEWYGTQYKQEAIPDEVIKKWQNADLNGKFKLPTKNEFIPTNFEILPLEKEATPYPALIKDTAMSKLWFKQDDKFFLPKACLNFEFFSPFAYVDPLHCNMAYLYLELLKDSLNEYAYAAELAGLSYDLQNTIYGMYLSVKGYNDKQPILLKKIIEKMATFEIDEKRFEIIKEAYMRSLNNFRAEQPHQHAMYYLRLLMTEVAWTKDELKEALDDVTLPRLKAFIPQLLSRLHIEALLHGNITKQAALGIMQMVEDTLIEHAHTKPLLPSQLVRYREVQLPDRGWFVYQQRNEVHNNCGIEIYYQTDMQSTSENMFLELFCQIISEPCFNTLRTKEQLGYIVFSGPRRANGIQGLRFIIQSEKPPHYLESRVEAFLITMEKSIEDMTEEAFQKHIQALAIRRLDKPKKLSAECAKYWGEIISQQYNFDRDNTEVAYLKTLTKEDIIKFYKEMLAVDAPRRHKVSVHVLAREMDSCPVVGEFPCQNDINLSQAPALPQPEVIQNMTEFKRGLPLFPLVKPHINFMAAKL

[12] = target: T3, SUMO-activating enzyme (Homo sapiens, UniProt Q9UBT2); assay: SUMOylation inhibitor hit validation, confirmation, SUMOylation inhibitor project, biochemical, AlphaScreen (AID 2018); assay type: functional
[13] = target: Induced myeloid leukemia cell differentiation protein Mcl-1 (Homo sapiens, UniProt Q07820); assay type: functional
[14] = target: T3, SUMO-activating enzyme; assay: inhibitors of in vitro SUMOylation cascade, primary screen, biochemical, HTRF, uHTS (AID 2006); assay type: protein-complex assay
[15] = HIV-1 Env-mediated cell fusion inhibitors, dose response, CCR5-tropic Env (AID 2279); assay type: functional

T3 sequence (Q9UBE0 whole entry): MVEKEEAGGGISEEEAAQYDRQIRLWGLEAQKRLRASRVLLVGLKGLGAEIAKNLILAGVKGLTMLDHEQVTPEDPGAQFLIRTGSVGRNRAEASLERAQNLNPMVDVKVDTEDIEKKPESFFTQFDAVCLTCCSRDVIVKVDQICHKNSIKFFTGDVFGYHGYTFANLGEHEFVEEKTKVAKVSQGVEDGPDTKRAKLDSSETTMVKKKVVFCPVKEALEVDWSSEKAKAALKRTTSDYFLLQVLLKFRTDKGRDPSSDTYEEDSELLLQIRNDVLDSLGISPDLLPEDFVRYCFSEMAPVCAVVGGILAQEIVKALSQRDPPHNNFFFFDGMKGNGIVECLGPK
T3 sequence (Q9UBT2 whole entry): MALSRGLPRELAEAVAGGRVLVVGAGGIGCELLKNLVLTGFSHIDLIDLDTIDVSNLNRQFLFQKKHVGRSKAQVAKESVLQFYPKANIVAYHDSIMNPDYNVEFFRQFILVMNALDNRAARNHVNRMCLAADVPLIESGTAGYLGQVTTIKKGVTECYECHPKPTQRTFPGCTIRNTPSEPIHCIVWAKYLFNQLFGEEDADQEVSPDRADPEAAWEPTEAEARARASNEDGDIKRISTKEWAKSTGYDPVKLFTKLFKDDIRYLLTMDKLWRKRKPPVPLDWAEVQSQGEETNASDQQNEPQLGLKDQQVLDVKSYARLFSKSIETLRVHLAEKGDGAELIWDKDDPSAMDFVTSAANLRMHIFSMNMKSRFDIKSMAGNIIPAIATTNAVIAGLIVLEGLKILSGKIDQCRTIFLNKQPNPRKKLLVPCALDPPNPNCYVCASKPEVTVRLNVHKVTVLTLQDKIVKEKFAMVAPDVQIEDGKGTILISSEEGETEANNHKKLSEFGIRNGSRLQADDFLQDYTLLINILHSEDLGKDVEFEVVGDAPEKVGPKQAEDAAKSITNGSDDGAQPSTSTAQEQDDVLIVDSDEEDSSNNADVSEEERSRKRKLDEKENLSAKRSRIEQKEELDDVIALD
Chain of Induced myeloid leukemia cell differentiation protein Mcl-1 (Q07820 whole entry): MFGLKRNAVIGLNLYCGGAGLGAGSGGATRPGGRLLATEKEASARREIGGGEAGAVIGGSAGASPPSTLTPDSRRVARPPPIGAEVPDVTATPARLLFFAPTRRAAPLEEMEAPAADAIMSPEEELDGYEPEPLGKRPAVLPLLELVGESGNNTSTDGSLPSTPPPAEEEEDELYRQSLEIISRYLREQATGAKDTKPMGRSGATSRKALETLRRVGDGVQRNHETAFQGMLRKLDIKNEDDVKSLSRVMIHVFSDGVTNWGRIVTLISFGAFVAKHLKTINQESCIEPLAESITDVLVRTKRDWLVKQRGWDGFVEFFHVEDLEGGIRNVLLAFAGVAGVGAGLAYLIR
Chain of G2/mitotic-specific cyclin-B1 (P14635 whole entry): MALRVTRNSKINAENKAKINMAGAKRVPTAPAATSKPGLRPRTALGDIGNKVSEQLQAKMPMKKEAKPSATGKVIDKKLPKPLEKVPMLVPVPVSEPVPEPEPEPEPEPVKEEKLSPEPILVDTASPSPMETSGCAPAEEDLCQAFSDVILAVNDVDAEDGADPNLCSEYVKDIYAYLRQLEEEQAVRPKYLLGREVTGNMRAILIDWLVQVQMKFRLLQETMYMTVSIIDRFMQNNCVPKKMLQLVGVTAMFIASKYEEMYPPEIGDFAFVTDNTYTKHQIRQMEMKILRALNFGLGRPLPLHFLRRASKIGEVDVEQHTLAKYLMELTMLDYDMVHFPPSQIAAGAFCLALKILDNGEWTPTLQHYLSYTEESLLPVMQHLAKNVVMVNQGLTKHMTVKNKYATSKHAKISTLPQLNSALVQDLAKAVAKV
Chain of FAD-linked sulfhydryl oxidase ALR (P55789 whole entry): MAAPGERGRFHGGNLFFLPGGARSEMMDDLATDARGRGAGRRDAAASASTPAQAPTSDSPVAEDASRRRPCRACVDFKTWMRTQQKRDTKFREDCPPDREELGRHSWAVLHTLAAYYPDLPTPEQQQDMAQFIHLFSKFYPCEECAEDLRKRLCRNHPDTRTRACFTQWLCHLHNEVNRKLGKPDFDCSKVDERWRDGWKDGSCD
Chain of Bcl-2-like protein 10 (Q9HD36 whole entry): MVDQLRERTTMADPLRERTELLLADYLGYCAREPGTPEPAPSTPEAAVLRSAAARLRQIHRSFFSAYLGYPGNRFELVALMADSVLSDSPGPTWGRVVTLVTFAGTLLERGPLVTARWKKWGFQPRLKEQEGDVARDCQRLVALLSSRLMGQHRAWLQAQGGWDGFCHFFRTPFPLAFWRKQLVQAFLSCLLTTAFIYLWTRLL
Chain of G-protein coupled receptor 55 (Q9Y2T6 whole entry): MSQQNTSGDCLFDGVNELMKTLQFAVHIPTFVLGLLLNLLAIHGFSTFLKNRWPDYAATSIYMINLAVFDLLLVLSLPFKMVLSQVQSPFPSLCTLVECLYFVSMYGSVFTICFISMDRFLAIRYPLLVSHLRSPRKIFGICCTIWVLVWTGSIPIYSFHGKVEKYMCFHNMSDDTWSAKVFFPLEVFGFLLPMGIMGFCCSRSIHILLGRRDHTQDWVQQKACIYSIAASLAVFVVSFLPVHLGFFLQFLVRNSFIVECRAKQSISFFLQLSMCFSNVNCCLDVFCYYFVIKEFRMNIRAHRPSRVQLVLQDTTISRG
Chain of Wee1-like protein kinase (P30291 whole entry): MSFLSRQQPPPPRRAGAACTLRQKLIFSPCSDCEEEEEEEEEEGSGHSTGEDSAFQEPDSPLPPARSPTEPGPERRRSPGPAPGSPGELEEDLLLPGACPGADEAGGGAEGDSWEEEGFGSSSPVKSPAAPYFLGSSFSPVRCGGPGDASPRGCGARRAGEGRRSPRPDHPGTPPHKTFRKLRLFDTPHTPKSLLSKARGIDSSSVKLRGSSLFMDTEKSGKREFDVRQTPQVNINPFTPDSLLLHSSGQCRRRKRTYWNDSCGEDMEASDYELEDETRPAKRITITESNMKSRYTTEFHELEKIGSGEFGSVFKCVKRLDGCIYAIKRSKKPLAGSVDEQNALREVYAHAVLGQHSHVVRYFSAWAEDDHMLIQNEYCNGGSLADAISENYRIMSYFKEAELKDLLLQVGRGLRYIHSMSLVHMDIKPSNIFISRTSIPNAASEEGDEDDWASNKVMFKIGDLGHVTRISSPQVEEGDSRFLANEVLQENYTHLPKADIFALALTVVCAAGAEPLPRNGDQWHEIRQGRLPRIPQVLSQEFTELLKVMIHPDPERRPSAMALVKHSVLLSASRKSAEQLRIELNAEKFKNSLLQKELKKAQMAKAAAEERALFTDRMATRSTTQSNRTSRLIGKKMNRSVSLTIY

SMILES: CCn1ccc(C(=O)Nc2ccc(S(=O)(=O)Nc3ccccc3OC)cc2)n1
- IC50 [1]: > 100 µM (inactive)

SMILES: Cc1cccn2c1nc(=S)n2C(=O)c1ccco1
- EC50 [2]: > 49.7 µM (not active)
- EC50 [3]: 1.05 µM (active)
- EC50 [4]: > 49.7 µM (not active)
- EC50 [5]: 0.104 µM (active)

SMILES: O=C(Nc1ccncc1)c1ccc2ncsc2c1
- CC50 [6]: > 100 µM (active)
- AC50 [7]: 1.34 µM (active)

SMILES: CN(C)c1ccc(/C=C/C(=O)c2c(O)oc3ccccc3c2=O)cc1
- EC50 [8]: 7.5 µM (active)
- IC50 [9]: > 55.7 µM (not active)
- EC50 [10]: 19.5 µM (inactive)
- IC50 [11]: > 2.07 µM (active)

SMILES: CN(C)S(=O)(=O)c1cccc(-c2nn(-c3ccccc3)cc2/C=C2\SC(=S)NC2=O)c1
- IC50 [12]: 7.59 µM (active)
- IC50 [13]: 1.44 µM (active)
- IC50 [14]: 10.6 µM (active)
- IC50 [15]: 7.08 µM (active)

— ChEMBL document CHEMBL1201862, “PubChem BioAssay data set” (2004)
